Source: the NIST ThermoML archive (doi:10.1016/j.tca.2014.05.014)

How the values were obtained:
[1] = mn = molality of the nth substance listed, in mol/kg; conditions: 101 kPa, Liquid; for speed of sound: Frequency=3 MHz, Sing-around technique in a fixed-path interferometer; for mass density: Vibrating tube method
[2] = 101 kPa, Liquid, Vibrating tube method

OC[C@H]1O[C@@](CO)(O[C@H]2O[C@H](CO)[C@@H](O)[C@H](O)[C@H]2O)[C@@H](O)[C@@H]1O [D-sucrose] + O
[1]
Conditions | mass density, 288.15 K [kg/m3] | mass density, 293.15 K [kg/m3] | mass density, 298.15 K [kg/m3] | mass density, 303.15 K [kg/m3] | mass density, 308.15 K [kg/m3] | speed of sound, 288.15 K [m/s] | speed of sound, 293.15 K [m/s] | speed of sound, 298.15 K [m/s] | speed of sound, 303.15 K [m/s] | speed of sound, 308.15 K [m/s]
m1 = 0.05 | 1006.43 | 1005.42 | 1004.16 | 1002.72 | 1001.27 | 1471.5 | 1487.4 | 1501.4 | 1513.5 | 1523.7
m1 = 0.15 | 1019 | 1017.99 | 1016.73 | 1015.24 | 1013.54 | 1481 | 1496.3 | 1509.9 | 1521.7 | 1531.8
m1 = 0.25 | 1030.99 | 1029.9 | 1028.58 | 1026.97 | 1025.28 | 1490.7 | 1505.7 | 1518.9 | 1530.3 | 1539.9
m1 = 0.35 | 1042.86 | 1041.71 | 1040.32 | 1038.71 | 1036.92 | 1500.5 | 1515 | 1527.7 | 1538.7 | 1548.2

O [water]
[2]
Conditions | mass density [kg/m3]
288.15 K | 999.591
293.15 K | 998.551
298.15 K | 997.255
303.15 K | 995.775
308.15 K | 994.329
